Reference: patent US10653670B2, “Use of indole compounds for fat reduction and skin and soft tissue tightening” (Alevere Medical Corporation, priority 2013, dated 2020)
Entries after “also recorded” stand apart in the source; their conditions may differ.

What was measured:
[1] = recent reports following clinical trials; cited from earlier work
[2] = test system: adipocytes over nerve cells, dermal cells, muscle cells, and endothelial cells; assay: LIVE/DEAD assay, tissue preference (adipocytes versus other cell types); type: cell-based, human; conditions: for tissue specificity / tissue preference: Example 2, FIGS. 5-8 and table, 2 and 5 hours in FIGS. 6-8
adipocytes [3] = assay: Histology of injected immediate ex-vivo abdominoplasty tissue; type: cell-based, human
Method: As the indole group has not been previously used for intralesional fat reduction, a method of obtaining histologic specimens had to be modified.
The tissue model described herein, therefore, was immediate ex-vivo abdominoplasty tissue that had been permitted for use by the surgical patient. Segments of abdominal skin and subcutaneous fat were injected with identified test compounds, plus a negative saline control and three positive controls: 1% deoxycholate, the commercial preparation of Aqualyx®, and the Network Lipolysis PC/DC formula.
Because there was no host; inflammatory changes would not be expected. This study was only performed to assess the immediacy of adipocyte changes, and to determine the method of action of each compound.

[4] = test system: fat pad (human fat graft); assay: Nude mouse study, injection into engrafted human fat pad; type: in vivo
Method: This example reports exemplary compounds reported in Example 1. A mouse study was performed to test compounds of the embodiments. Eight test compounds were injected. In addition to normal saline and compound diluent (DMSO plus excipients) (negative controls), positive controls included 1% sodium deoxycholate (DC, MasterPharm, Richmond Hill, N.Y.), phosphatidylcholine 25 mg/ml plus deoxycholate 12 mg/ml (PC/DC, PC25/DC 12, MasterPharm, Richmond Hill, N.Y.), and Aqualyx®, a sodium deoxycholate in a lactose carrier (Marllor International, Italy).
Seventy nude mice were chosen for a study of safety and efficacy of injectable lipolytic compounds. Human fat was harvested one hour prior to the injection procedure. 0.5 cc of fat was loaded into micro syringes. Engraftment took place under general anesthesia. Four weeks later, the fat pad size was measured and compounds injected precisely using a 6 mm meso needle in the center and 0.5 cm cephalad and caudad to the midpoint. Mice were sacrificed at one day, one week, two weeks and 4 weeks. […]
Each fat pad was measured and weighed on the analytical balance at the time of sacrifice. […]
Size reduction after compound injection was measured against the measurement taken just previous to injection of compounds. […] Compound dose was calculated based on the average weight of each mouse and was based on the maximum safe dose of PC/DC. […]

adipocytes [5] = assay: LIVE/DEAD calcein/ethidium bromide assay, adipocyte kill rate; type: cell-based, human; conditions: for adipocyte kill rate / aggressiveness: Example 2, FIGS. 5-8 and table; for Adipocyte, averaged ethidium numbers: kill rate (ethidium), all tissue types on the same plate
Method: (§1) The time and concentration dependent effects of drug substance on both cell viability and toxicity were evaluated using a two-color fluorescence assay that measures plasma membrane integrity and intracellular enzyme activity. Live cells are determined by the strong fluorescence of calcein AM upon enzymatic conversion. […] The ratio of ethidium to calcein fluorescence is an excellent measure of the relative amount of live and dead cells.
(§2) Initial screening was performed using a variety of cell viability and cytotoxicity assays, including Presto Blue® (Invitrogen, Grand Island, N.Y.), Alamar Blue® (Invitrogen, Grand Island, N.Y.), Cyto-Tox One® (Promega, Madison, Wis.), and Cell Titer Glo® (Promega, Madison, Wis.). […] An MTT terazolium assay was performed, as well as LDH and ATP based assays. […] The LIVE/DEAD® for mammalian cells assay was used. LIVE/DEAD® for mammalian cells assay is a calcein (live read)/ethidium bromide (dead) multiplex assay.
(§3) A sample of DMSO/PBS was a negative control. A sample of Aqualyx® was a positive control. In the table, 24M is phosphatidylcholine 25 mg/ml plus deoxycholate 12 mg/and 25N is C 50/DC24; these were positive controls. The numbers in the table refer to averaged ethidium numbers. The percentages represent the relative kill rate for each cell type when rated against the adipocyte kill rate for that compound. All tissue types were tested on the same plate against adipocytes in order to standardize results.
(§4) Over seventy compounds of the embodiments were tested for adipocytolysis, then for tissue preference. A consistent assay with multiplex information was a calcein/ethidium bromide assay that assesses cell viability and cell death simultaneously. Cell viability was checked using the Countess device. All plates were inoculated with 100 microliters of the appropriate cell types. A 6 well repeat was used to verify results. Cell types used included cultured human adult derived adipocytes, dermal fibroblasts, skeletal muscle cells, and endothelial cells (Cell Applications, Inc., San Diego, Calif.). Human peripheral nerve cells (Innoprot, Spain) were also used.
(§5) Compounds were formulated using a DMSO/PBS excipient. A 10 mg/ml concentration was used. One hundred microliters of test compound was inserted into 6 wells of 5 cell types, placed in adjacent rows. The plates were incubated for 4 hours. Indicator was added to each well, and plates were read at 45 minutes using a fluorescence spectrophotometer (Molecular Devices, Sunnyvale, Calif.).

endothelial cells = assay: LIVE/DEAD calcein/ethidium bromide assay, endothelial cell kill rate; type: cell-based, human; conditions: for Endothelial, averaged ethidium numbers: kill rate (ethidium), same plate as adipocytes; for Endothelial, relative kill rate rated against the adipocyte kill rate: percentage in brackets
Method: as §1, §2, §3, §4, §5

skeletal muscle cells = assay: LIVE/DEAD calcein/ethidium bromide assay, muscle cell kill rate; type: cell-based, human; conditions: for Muscle, averaged ethidium numbers: kill rate (ethidium), same plate as adipocytes; for Muscle, relative kill rate rated against the adipocyte kill rate: percentage in brackets
Method: as §1, §2, §3, §4, §5

nerve cells = type: cell-based; conditions: for Nerve, averaged ethidium numbers: kill rate (ethidium), same plate as adipocytes; for Nerve, relative kill rate rated against the adipocyte kill rate: percentage in brackets
Method: as §1, §2, §3, §4, §5

dermal fibroblasts = type: cell-based; conditions: for Dermis, averaged ethidium numbers: kill rate (ethidium), same plate as adipocytes; for Dermis, relative kill rate rated against the adipocyte kill rate: percentage in brackets
Method: as §1, §2, §3, §4, §5

| SMILES | tissue specificity / tissue preference [2] | histology finding / mechanism of action (adipocytes [3]; at 4 hours) | adipocyte kill rate / aggressiveness (adipocytes [5]) | Adipocyte, averaged ethidium numbers (adipocytes [5]) | Endothelial, averaged ethidium numbers (endothelial cells) | Endothelial, relative kill rate rated against the adipocyte kill rate (endothelial cells) [%] | histology finding / mechanism of action (adipocytes [3]; at 12 hours) | Muscle, averaged ethidium numbers (skeletal muscle cells) | Muscle, relative kill rate rated against the adipocyte kill rate (skeletal muscle cells) [%] | Nerve, averaged ethidium numbers (nerve cells) | Nerve, relative kill rate rated against the adipocyte kill rate (nerve cells) [%] | Dermis, averaged ethidium numbers (dermal fibroblasts) | Dermis, relative kill rate rated against the adipocyte kill rate (dermal fibroblasts) [%] | also measured |
| --- | --- | --- | --- | --- | --- | --- | --- | --- | --- | --- | --- | --- | --- | --- |
| C[C@H](CCC(=O)[O-])[C@H]1CC[C@H]2[C@@H]3CC[C@@H]4C[C@H](O)CC[C@]4(C)[C@H]3C[C@H](O)[C@]12C.[Na+] [1% deoxycholate, sodium deoxycholate] | indiscriminate | Cell wall lysis |  |  |  |  |  |  |  |  |  |  |  | instances of facial nerve palsy [1]: two; numbness with paresthesias, patients treated [1]: up to 40%; gross effect on fat pad graft ([4]; four weeks after injection): Visible and measurable fat reduction; gross effect on fat pad graft ([4]; one day after injection): Immediate necrosis |
| O=C(O)c1cc2ccccc2[nH]1 [Compound 29, 1H-indole-2-carboxylic acid] | most strongly tissue preferential; also recorded: strongly adipocyte preferential |  | less aggressive; also recorded: equivalent to that of Compounds D and E | 83 | 8.5 | 10 | primarily an apoptotic mechanism | 14 | 17 | 15 | 18 | 9 | 11 |  |
| c1ccc2[nH]ccc2c1 [Compound 33, 1H-indole] | moderate tissue specificity | pyroptotic activity | fairly low adipocyte kill rate | 32 | 18 | 56 |  | 18 | 56 | 17 | 53 | 17 | 53 | ethidium results for dermis, muscle and endothelial cells compared with adipocytes ([2]; 4 time points over 24 hours): less than half toxic; tissue preference ([2]; Example 5, FIG. 12, 10 mg/ml, 4 hours incubation): about 50% |
| Brc1ccc2[nH]ccc2c1 [Compound 38, 5-bromo-1H-indole] | moderate preference | primarily cytolysis | aggressive adipocyte killer | 558 | 289 | 50 |  | 362 | 65 | 551 | 99 | 148 | 27 | toxicity to nerve cells (nerve cells; Example 2, FIGS. 6-8): toxic to nerve cells; toxicity to dermis / dermal fibroblasts (dermal fibroblasts; Example 2, FIGS. 6-8): not nearly as toxic |
| O=C(O)Cc1c[nH]c2ccc(Br)cc12 [Compound 41, 2-(5-bromo-1H-indol-3-yl) acetic acid] | most strongly tissue preferential; also recorded: high tissue preference index |  | moderate; also recorded: strong adipocytolytic capability | 149 | 44 | 30 | Pyroptotic mechanism | 40 | 27 | 32 | 20 | 27 | 18 |  |
